Reference: US4552965A, “2α, 3β, 4aβ, 8aα-Decahydro-3-(4-phenyl-1-piperidinyl)-2-naphthalenol” (University of California, priority 1984, dated 1985)

Test system: Torpedo californica electric organ synpatic vesicles
Assay: Inhibition of ATP-dependent uptake of radioactive ACh by purified Torpedo electric organ synaptic vesicles in vitro
Format: biochemical
Details: for IC50: purified Torpedo vesicles, room temperature, approximately 30 minutes, neutral pH, approximately 5 mM ATP, 50 μM radioactive ACh, read-out: IC50 (inhibition of vesicular ACh uptake)
Protocol: For example, purified Torpedo californica electric organ synpatic vesicles uptake ACh in vitro in the presence of ATP. Such vesicles are incubated at room temperature for approximately 30 minutes in isosmotic buffer at neutral PH, the buffer containing approximately 5 mM ATP and 50 μM radioactive ACh, and the radioactivity accumulated by the washed vesicles is then measured by liquid scintillation spectroscopy. By varying the concentration of the compound to be tested to determine its inhibitory effect on ACh uptake, a dose response curve can be deduced including the IC50.

Compound	IC50 [µM]	times more effective than AH 5183 in preventing ACh uptake by the vesicles (relative to AH 5183)	concentration needed relative to DPPN for comparable blockade of vesicular uptake of ACh (relative to DPPN)
O[C@@H]1C[C@H]2CCCC[C@@H]2C[C@H]1N1CCC(c2ccccc2)CC1 (relative stereo) [DPPN, (2α, 3β, 4aβ, 8aα)-decahydro-3-(4-phenyl-1-piperidinyl)-2-naphthalenol]	10	approximately four	–
OC1CCCCC1N1CCC(c2ccccc2)CC1 (stereo not shown) [AH 5183, 2-(4-Phenylpiperidino)-cyclohexanol]	40	–	at least four
